According to paper PMC8575619, “Cytotoxic and Antifungal Amides Derived from Ferulic Acid: Molecular Docking and Mechanism of Action” (BioMed Research International, 2021):
≈ marks a conversion by molar mass, not a printed value. Where “and” joins values, the source holds several entries; their conditions need not be identical. Identical values can stand only once. Like-named read-outs stand apart in the source and are kept apart here.

Columns and labels:
HCT116 = test: Cytotoxicity assay, alamar blue test; assay type: cell-based, human; settings: value (95% confidence interval)
Protocol: (§1) HepG2 cells (human hepatocellular carcinoma), HCT116 (human colon carcinoma), HL-60 (human promyelocytic leukemia), and MRC5 (human lung fibroblast) obtained from the ATCC (Manassas, VA, USA) were used. Cells were cultured in cell culture bottles (75 cm 3, 250 mL volume), and media used were RPMI 1640 and supplemented with 10% fetal bovine serum. Cells were maintained in incubators with 5% CO2 atmosphere at 37°C. Cellular growth was monitored daily with the use of an inversion microscope. The medium was changed whenever cell growth reached the necessary confluence for nutrient renewal. For the maintenance of adhered cells, trypsin (0.25%) was used for the cells to detach from the walls of the bottles.
(§2) To assess the cytotoxicity of the substances, the alamar blue test was performed after 72 h of exposure with the test substances. Alamar blue, known as resazurin [62], is a fluorescent/colorimetric indicator with redox properties. The reduction in alamar blue reflects cell proliferation. This was initially used to indicate cell growth and/or viability in monitoring lymphocyte proliferation and currently has several applications. Initially, cells were plated in 96-well plates (100 μL/well of a solution of 0.3 × 10^6 cells/mL for cells in suspension and 0.7 × 10^5 cells/mL for adhered cells). After 24 h of incubation, the test substances dissolved in DMSO were added to each well and incubated for 72 h. Doxorubicin was used as a positive control. The negative control received the same amount of DMSO. Four hours before the end of the incubation period, 20 μL of the stock solution (0.312 mg/mL) of alamar blue (resazurin) was added to each well. Absorbances were measured at wavelengths of 570 nm (reduced) and 600 nm (oxidized) using a plate reader.

HL-60 = test: Cytotoxicity assay, alamar blue test; assay type: cell-based, human; settings: value (95% confidence interval); for IC50: read-out: IC50 HL60
Protocol: as §1, §2

HepG2 cells = test: Cytotoxicity assay, alamar blue test; assay type: cell-based, human; settings: value (95% confidence interval)
Protocol: as §1, §2

MRC5 = test: Cytotoxicity assay, alamar blue test (healthy cell line); assay type: cell-based, human; settings: value (95% confidence interval)
Protocol: as §1, §2

Candida albicans CBS 562 = test: Minimum fungicide concentration (MFC); assay type: cell-based; settings: ≥ 4 fungistatic or <4 fungicide
Protocol: (§3) Antifungal activity evaluations were performed using references strains of Candida spp., obtained from the Centraalbureau voor Schimmelcultures (CBS, Ultrecht, Netherlands): Candida albicans CBS 562, Candida tropicalis CBS 94, and Candida krusei CBS 573. Nystatin, Tween 80%, DMSO, caspofungin diacetate, and ergosterol were obtained from Sigma-Aldrich® (St. Louis, MO, EUA) and sorbitol (D-sorbitol anhydrous) from INLAB® (São Paulo, Brazil). All assays were performed in triplicate in three independent experiments. The culture medium used for maintenance of the microorganisms was Agar Sabouraud Dextrose (ASD). Inoculants were adjusted to a final concentration of 2.5 × 10^3 CFU/mL (Clinical and Laboratory Standards Institute, 2002). […]
(§4) The minimum fungicide concentration (MFC) of the compounds was obtained after the interpretation of the MIC. Three (3) aliquots of 30 μL of supernatant were removed from the wells (where complete inhibition of fungal growth was analyzed) and placed in Petri dishes containing 15 mL of agar Sabouraud dextrose. The plates were incubated at 35 ± 2°C for 24 h for visual counting of colony forming units. To determine whether the compounds had fungistatic (MFC/MIC ≥ 4) or fungicidal (MFC/MIC < 4) activity, the MFC/MIC ratio was calculated.

Candida krusei CBS 573 = test: Minimum fungicide concentration (MFC); assay type: cell-based; settings: ≥ 4 fungistatic or <4 fungicide
Protocol: as §3, §4

[1] = tested on: Candida tropicalis CBS 94; test: Minimum fungicide concentration (MFC); assay type: cell-based; settings: ≥ 4 fungistatic or <4 fungicide
Protocol: as §3, §4

[2] = tested on: Candida strains (Candida albicans, C. tropicalis, and C. krusei); test: Antifungal evaluation (MIC/MFC), statements for all Candida strains; assay type: cell-based, Candida spp.
Protocol: The antifungal activity (Table 2) of the ten amides was assessed via the minimum inhibitory concentration (MIC) which was determined using the microdilution methods against three species of Candida strains (Candida albicans, C. tropicalis, and C. krusei).
as §3
MIC was determined by the microdilution technique, as previously described by the adapted Clinical and Laboratory Standards Institute (CLSI, 2002) method. The compounds were subjected to the microdilution technique in 96-well plates, with U bottom. The samples were dissolved with DMSO and sterile distilled water (up to 1.0 mL). Through serial dilutions, concentrations of the evaluated compounds ranging from 1000 μg/mL to 7.8 μg/mL. The culture sterility medium, the evaluated substances, and the microbial growth were carried out in parallel. The plates were closed and subjected to a temperature of 35 ± 2°C for 24 h. 1% TTC (2,3,5-triphenyl tetrazolium chloride, Sigma-Aldrich®, St. Louis, MO, EUA) was added to each well to confirm the presence of viable microorganisms. MIC was defined as the lowest concentration of the test substance that inhibits visible microbial growth.
The minimum fungicide concentration (MFC) of the compounds was obtained after the interpretation of the MIC. Three (3) aliquots of 30 μL of supernatant were removed from the wells (where complete inhibition of fungal growth was analyzed) and placed in Petri dishes containing 15 mL of agar Sabouraud dextrose. The plates were incubated at 35 ± 2°C for 24 h for visual counting of colony forming units.

C. albicans CBS 562 = test: Sorbitol assay (cell wall mechanism), microdilution; assay type: cell-based, Candida albicans; settings: for MIC: Candida albicans
Protocol: (1) Sorbitol Assay. The microdilution technique was performed in the presence of sorbitol (D-sorbitol, anhydrous) (INLAB laboratory), to determine the mode of action of the compounds on the cell wall of C. albicans CBS 562. For this test, the inoculum was prepared with sorbitol to a final concentration of 0.8 M. The plates were incubated at 35 ± 2°C, and readings were taken 24 h and 48 h after incubation. Caspofungin was used as positive control at an initial concentration of 5 mg/mL [68–70].

C. albicans = test: Ergosterol test (plasma membrane mechanism), microdilution; assay type: cell-based, Candida albicans; settings: for MIC Without ergosterol: absence of ergosterol
Protocol: (2) Ergosterol Test. The test of the compounds was performed using the microdilution technique, as previously described, in the presence of exogenous ergosterol at 400 μg/mL. Nystatin was used as positive control. The plates were incubated at 35 ± 2°C, and readings were taken at 24 and 48 h.

Molecule | IC50 (HCT116; 72 h) | IC50 HCT116 (HCT116; 72 h) | IC50 (HL-60; 72 h) | IC50 (HepG2 cells; 72 h) | IC50 HEPG2 (HepG2 cells; 72 h) | IC50 (MRC5; 72 h) | IC50 MRC5 (MRC5; 72 h) | MIC/MFC reason C. albicans CBS 562 (Candida albicans CBS 562) | MIC/MFC reason C. krusei CBS 573 (Candida krusei CBS 573) | MIC/MFC reason C. tropicalis CBS 94 [1] | IC50 (HCT116; Homo sapiens, HCT-116, 72 h) | IC50 (HL-60; Homo sapiens, HL-60, 72 h) | IC50 (HepG2 cells; Homo sapiens, HepG2, 72 h) | IC50 (MRC5; Homo sapiens, MRC5, 72 h) | IC50 HL60 (HL-60; 72 h) | also measured
(E)-3-(3-hydroxy-4-methoxyphenyl)-N-(4-methoxybenzyl)acrylamide [Compound 8] | > 79.8 µM | >25 µg/mL | 70.3 µM | 64.7 µM | 20.27 (15.94–25.77) μg/mL | 53.2 µM | 16.69 (13.18–21.13) μg/mL | 1 | 1 | 1 | – | – | – | – | – | MIC ([2]; stated for all Candida strains): 1590 µM
COc1ccc(/C=C/C(=O)N2CCCC2)cc1O [Compound 3, (E)-3-(3-hydroxy-4-methoxyphenyl)-1-(pyrrolidin-1-yl)prop-2-en-1-one] | – | – | – | – | – | – | – | – | – | – | > 25 µg/mL and > 95.7 µM | > 25 µg/mL and > 95.7 µM | > 25 µg/mL and > 95.7 µM | > 25 µg/mL and > 95.7 µM | – | melting point: 158 to 162 °C
COc1cc(/C=C/C(=O)NCC(C)C)ccc1O [Compound 2, (E)-3-(4-hydroxy-3-methoxyphenyl)-N-isobutylacrylamide] | – | – | – | – | – | – | – | – | – | – | > 25 µg/mL and > 100 µM | > 25 µg/mL and > 100 µM | > 25 µg/mL and > 100 µM | > 25 µg/mL and > 100 µM | – | melting point: 75 to 81 °C
CC[C@H](C)C[C@H](C)CCCCCCCCC(=O)N[C@H]1C[C@@H](O)[C@@H](NCCN)NC(=O)[C@@H]2[C@@H](O)CCN2C(=O)[C@H]([C@H](O)CCN)NC(=O)[C@H]([C@H](O)[C@@H](O)c2ccc(O)cc2)NC(=O)[C@@H]2C[C@@H](O)CN2C(=O)[C@H]([C@@H](C)O)NC1=O [Caspofungin, reference compound] | – | – | – | – | – | – | – | – | – | – | – | – | – | – | – | MIC (C. albicans CBS 562; CBS562, read-out: MIC With sorbitol): 1 µg/mL (≈ 0.915 µM); MIC (C. albicans CBS 562; CBS562, read-out: MIC Without sorbitol): 0.015 µg/mL (≈ 0.0137 µM)
(E)-3-(3-hydroxy-4-methoxyphenyl)-N-phenylacrylamide [Compound 5] | > 88.2 µM | >25 µg/mL | 50.4 µM | > 88.2 µM | >25 µg/mL | > 88.2 µM | >25 µg/mL | – | – | – | – | – | – | – | 14.28 (9.40–21.70) μg/mL | –
(E)-N-benzyl-3-(3-hydroxy-4-methoxyphenyl)acrylamide [Compound 6] | 70.3 µM | 18.93 (13.48–26.57) μg/mL | 64.9 µM | 107 µM | 20.82 (17.45–28.23) μg/mL | 76.5 µM | 20.59 (16.22–26.13) μg/mL | 1 | 1 | – | – | – | – | – | 17.49 (14.24–421.48) μg/mL | –
(E)-N-cyclohexyl-3-(3-hydroxy-4-methoxyphenyl)acrylamide [Compound 4] | > 90.8 µM | >25 µg/mL | 68.4 µM | > 90.8 µM | >25 µg/mL | > 90.8 µM | >25 µg/mL | – | – | – | – | – | – | – | 18.84 (11.58–27.65) μg/mL | –
(E)-N-(3,4-dimethoxybenzyl)-3-(3-hydroxy-4-methoxyphenyl)acrylamide [Compound 10] | > 78.9 µM | >25 µg/mL | 36.5 µM | > 78.9 µM | >25 µg/mL | > 78.9 µM | >25 µg/mL | 1 | 1 | 1 | – | – | – | – | 12.51 (7.41–18.12) μg/mL | bioactivity category by MIC ([2]; Candida strains): good bioactivity (good bioactivity (MIC between 26 and 125 μg/mL)); MIC Without sorbitol (C. albicans CBS 562; C. albicans CBS 562, absence of sorbitol): 31.25 µg/mL; MIC With sorbitol (C. albicans CBS 562; C. albicans CBS 562, sorbitol 0.8 M): >1000 µg/mL; MIC Without ergosterol (C. albicans): 62.25 µg/mL
COc1cccc2c1C(=O)c1c(O)c3c(c(O)c1C2=O)C[C@@](O)(C(=O)CO)C[C@@H]3O[C@H]1C[C@H](N)[C@H](O)[C@H](C)O1 [DOX, Doxorubicin, reference compound] | – | – | – | – | – | – | – | – | – | – | 0.02 µg/mL and 40 nM | 0.03 µg/mL and 60 nM | 0.01 µg/mL and 20 nM | 1 µg/mL and 1.84 µM | – | –
C[C@@H]1[C@H](O)[C@@H](C)/C=C/C=C/CC/C=C/C=C/C=C/C=C/C(O[C@H]2O[C@H](C)[C@@H](O)[C@H](N)[C@@H]2O)CC2O[C@](O)(CC(O)C(O)CCC(O)CC(O)CC(O)CC(=O)O[C@H]1C)CC(O)C2C(=O)O (stereo partly drawn) [Nystatin, reference compound] | – | – | – | – | – | – | – | 1 | 1 | 1 | – | – | – | – | – | MFC ([2]; stated for all Candida strains): 4.3 µM (≈ 3.98 µg/mL); MIC ([2]; stated for all Candida strains): 4.3 µM (≈ 3.98 µg/mL); MIC Without ergosterol (C. albicans): 3.75 µg/mL (≈ 4.05 µM); MIC With ergosterol (C. albicans; exogenous ergosterol at 400 μg/mL): 31.25 µg/mL (≈ 33.7 µM)
